Results from patent publication US20230174538A1, “Tricyclic heterocycles” (Merck Patent GmbH, priority 2020, published 2023).

What was measured:
YAP-TEAD interaction = assay: SK-HEP-1 reporter assay (8xTEAD responsive elements driving NanoLuc luciferase); format: cell-based; conditions: Homo sapiens, SK-HEP1, SK-HEP-1 reporter assay
In short: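 SK-HEP-1 cells stably carrying an 8×TEAD-element NanoLuc reporter were treated in duplicate with 10-point dilutions from a top final 30 μM (0.3% DMSO). After 24 h at 37 °C, luciferase activity was read by luminescence with NanoGlo lysis/substrate reagent, and IC50 values were derived.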

SW620 Yap KO cells = assay: Viability assay in SW620 Yap KO (Yap independent) cells, CyQUANT; format: cell-based; conditions: Homo sapiens, SW-620
Procedure: (§1) Viability Assay in NCI-H226 (Yap-Dependent) and SW620 Yap KO (Yap Independent) Cells
(§2) The ability of YAP-TEAD inhibitors to inhibit tumor cell growth was evaluated using two different cell lines: NCI-H226, which is a YAP dependent cell line, and SW620 cells, where YAP and TAZ were knocked out using CRISPR to generate a YAP independent cell line.
(§3) For the assay, cells were treated in duplicates with the test compounds in a 10-point dose, 1:3 dilution steps, with the top concentration starting at 30 μM (final concentration in assay). After a 96 hour incubation at 37° C., 95% rH, and 5% CO2, a cell-permeant DNA-binding dye that stains only healthy cells (CyQUANT®, Promega) was added to the cells, allowing the quantification of cell viability.
(§4) Cell Media: The NCI-H226 cells were cultured in the following media: RPMI 1640, +10% FBS, +1× GlutaMAX, +10 mM HEPES, +0.5% Pen/Strep. The SW620-KO cells were cultured in the following media: DMEM/F-12, +10% FBS, +1× GlutaMAX, +10 mM HEPES, +0.5% Pen/Strep.
(§5) Reagents: The reagents used are listed below:
(§6) Cell culture: The cells were examined using an inverted microscope to check for health, cell density, etc. To dissociate adherent cells, the monolayer of cells was washed once with pre-warmed PBS. After removing the PBS, 3 ml pre-warmed Accutase was added to a F75 flask, dispersed evenly and the flask was allowed to sit in incubator for ˜4-5 minutes.
(§7) When a single cell suspension was obtained, 7 ml of prewarmed growth media was added and resuspended with the cells. The cell suspension was transferred to a sterile 15 ml conical centrifuge tube, and spun for 5 min at 300×g, RT. The supernatant was discarded and the pellet was resuspended in 10 ml of pre-warmed growth media.
(§8) The total cell count was determined, and 20 μl of the desired cell number was added to each well of a 384 well plate using a Multidrop Combi. The plates were then incubated for 24 hours at 37° C., 95% rH, and 5% CO2.
(§9) Compound treatment: 24 hours after seeding, the cells were treated with compounds.
(§10) A 1:333 dilution of compounds, diluted in DMSO, was made to get a final concentration of 0.3% DMSO per well. To transfer the compounds to the assay plate, 120 nl was shot from Labcyte low dead volume plates to the cell plates containing 20 μl media/well with the ECHO 555 liquid handling system.
(§11) After treatment, the cells were fed with 20 μl fresh pre-warmed assay media using a Multidrop combi.
(§12) The assay plates were then incubated for 96 h at 37° C., 95% rH, and 5% CO2.
(§13) 96 h after treatment 30 μl of CyQuant® reagent was added to the assay plates using a Multidrop combi in the dark. The plates were then incubated for 1 hour at 37° C., 95% rH and 5% CO2. Thereafter, the assay plates were removed from the incubator and allowed to equilibrate to RT for 30 min in the dark without lid. Finally, they were measured using an EnVision microplate reader with a FITC bottom read program.

[1] = system: NCI-H226 human mesothelioma tumor cells; assay: NCI-H226 in vivo efficacy study (subcutaneous xenograft); conditions: H2d Rag2 female mice, NCI-H226 tumors, po qd for 29 days
Procedure: NCI-H226 In Vivo Efficacy Study
7-9-week-old H2d Rag2 female mice (own breeding, Taconic-Denmark) were inoculated subcutaneously with 5×10^6 NCI-H226 human mesothelioma tumor cells in the right flank. Tumor growth and body weight was measured twice weekly using caliper. Tumor volume was calculated using the formula TV=L×W×W/2.
When tumor volume reached approximately 75-150 mm^3, animals were randomized (Day 0) into treatment groups (n=9-10/group) and treated perorally (po) once daily (qd) for 29 days with either vehicle (20% hydroxypropyl β-cyclodextrin in 50 mM PBS pH 7.4) or Compound no. 2. Compound no. 2 was tested at dosing levels of 1, 3, 10, 30, and 100 mg/kg, respectively. Results are depicted in FIG. 1 (tumor growth over time for vehicle group and each dosage group) and FIG. 2 (final tumor volume of vehicle group and each dosage group).
Statistical analysis of tumor volumes between treatment groups was done using repeated measures analysis of covariance (RM-ANCOVA) in a linear mixed effects model followed by least-squares means pairwise comparisons.
The animal experiment was performed under regulation of the German animal welfare act and in accordance with the EU laboratory animal directive for the area of animal experiments.

NCI-H226 cells = assay: Viability assay in NCI-H226 (Yap-dependent) cells, CyQUANT; format: cell-based; conditions: Homo sapiens
Procedure: as §1, §2, §3, §4, §5, §6, §7, §8, §9, §10, §11, §12, §13

Row | SMILES | IC50 (YAP-TEAD interaction) [nM] | IC50 (SW620 Yap KO cells) [µM] | IC50 (NCI-H226 cells) [nM] | melting point [°C] | dosing levels showing maximal tumor growth inhibition [1] [mg/kg] | tumor growth inhibition compared to vehicle treated group ([1]; 1, 3, 10, 30 and 100 mg/kg, all tested dosing levels, p-value <0.001)
1 | Cn1cc2c3cc(CNC(=O)CCl)ccc3n(-c3ccc(C(F)(F)F)cc3)c2n1 [Example 24, 2-chloro-N—([2-methyl-8-[4-(trifluoromethyl)phenyl]pyrazolo[3,4-b]indol-5-yl]methyl)acetamide] | 100 to 10000 | 1 to 10 | 100 to 1000 | 221 to 222 | – | –
2 | Cn1cc2c3cc(C(=O)NC4CC4)ccc3n(-c3ccc(C(F)(F)F)nc3)c2n1 [Example 27, N-cyclopropyl-2-methyl-8-[6-(trifluoromethyl)pyridin-3-yl]-2H,8H-pyrazolo[3,4-b]indole-5-carboxamide] | 1 to 10 | > 30 | 1 to 100 | 300 | – | –
3 | Cn1cc2c3cc(C(=O)O[C@@H]4O[C@H](C(=O)O)[C@@H](O)[C@H](O)[C@H]4O)ccc3n(-c3ccc(C(F)(F)F)cc3)c2n1 [Example 30, (2S,3S,4S,5R,6S)-3,4,5-trihydroxy-6-{2-methyl-8-[4-(trifluoromethyl)phenyl]-2H,8H-pyrazolo[3,4-b]indole-5-carbonyloxy}oxane-2-carboxylic acid] | 100 to 10000 | > 30 | 1000 to 10000 | 110 to 111 | – | –

Now from value to compound, other results behind:

Row | IC50 (YAP-TEAD interaction) [nM] | IC50 (SW620 Yap KO cells) [µM] | IC50 (NCI-H226 cells) [nM] | melting point [°C] | SMILES | dosing levels showing maximal tumor growth inhibition [1] [mg/kg] | tumor growth inhibition compared to vehicle treated group ([1]; 1, 3, 10, 30 and 100 mg/kg, all tested dosing levels, p-value <0.001)
4 | 1 to 10 | > 30 | – | – | Cn1cc2c3cc(C(=O)O)ccc3n(-c3ccc(C(F)(F)F)cc3)c2n1 [Example 2, 2-methyl-8-[4-(trifluoromethyl)phenyl]-2H,8H-pyrazolo[3,4-b]indole-5-carboxylic acid] | > 10 | Significant tumor growth inhibition
5 | 10 to 100 | 1 to 10 | 100 to 1000 | 169 to 171 | Cc1nc2c(s1)c1cc(C(=O)O)ccc1n2-c1ccc(C(F)(F)F)cc1 [Example 25, 2-methyl-4-[4-(trifluoromethyl)phenyl]-[1,3]thiazolo[4,5-b]indole-7-carboxylic acid] | – | –
